According to patent US5672597A, “Acetamide derivative” (Kaken Pharmaceutical Co., Ltd., priority 1992, dated 1997):
Like-named read-outs stand apart in the source and are kept apart here.

Key:
[1] = system: ulcer induced by hydrochloric acid/ethanol; test: Test of ulcer induced by hydrochloric acid/ethanol; format: in vivo, wistar male rat; details: 1 h, read-out: Percentage of inhibition of ulcer formation; for inhibition in vivo at 30 mg/kg: 30 mg/kg oral, hydrochloride salts
Experimental: (§1) With respect to anti-ulcer effect of the compounds having the general formula (I), there were carried out a test of ulcer induced by pylorus-ligation, which ulcer is induced mainly due to offensive factors; a test of ulcer induced by hydrochloric acid/ethanol, which ulcer is induced mainly due to defensive factors such as mucosal blood flow and mucus; and a test of ulcer induced by a stress of restraint plus water-immersion, which ulcer is induced due to both of offensive and defensive factors. Further, there were carried out a test of ulcer induced by acetic acid as a chronic ulcer model and a test of cure-prolonged ulcer induced by acetic acid. Also, there was examined an activity of increasing gastric mucosal blood flow, which activity brings about acceleration of regeneration of the gastric mucosa. As test compounds, hydrochloride salts were used.
To a wistar male rat weighing 220 to 240 g, which had fasted and thirsted for 24 hours, was orally administered 150 mM hydrochloric acid/70% ethanol solution in an amount of 5 ml/kg (body weight). After 1 hour, the animal was sacrificed by dislocating the cervical vertebrae and the stomach was taken out therefrom. The length of the ulcer generated on the glandular stomach was measured and the total thereof was regarded as the ulcer coefficient (mm).
To control group, only the medium for the medicament solution was orally administered in an amount of […] (body weight), 30 minutes before the administration of hydrochloric acid/ethanol.
(§2) The obtained results were subjected to the same formula as in the test of ulcer induced by pylorus-ligation, to calculate a percentage of inhibition of ulcer formation. Six rats were used in each group for the test.

[2] = system: ulcer induced by a stress of restraint plus water-immersion; test: Test of ulcer induced by a stress of restraint plus water-immersion; format: in vivo, ddY male mouse; details: 7 h, read-out: Percentage of inhibition of ulcer formation; for inhibition in vivo at 30 mg/kg: mouse, 30 mg/kg oral, 15 minutes before the load of the stress, hydrochloride salts
Experimental: as §1
A ddY male mouse weighing 20 to 25 g, which had fasted for 18 hours, was put into a stress cage, and was loaded with a stress by immersing it in a water tank at 23° C., to a level of a xiphoid. After 7 hours, the animal was sacrificed by dislocating the cervical vertebrae and the stomach was taken out therefrom. The length of the ulcer generated on the glandular stomach was measured and the total thereof was regarded as the ulcer coefficient (mm).
To control group, only the medium for the medicament solution was orally administered in an amount of 0.1 ml/10 g (body weight) 15 minutes before the load of the stress.
as §2

[3] = system: ulcer induced by pylorus-ligation; test: Test of ulcer induced by pylorus-ligation; format: in vivo, wistar male rat; details: 14 h, read-out: Percentage of inhibition of ulcer formation
Experimental: as §1
The pylorus of a wistar male rat weighing 230 to 250 g, which had fasted for 48 hours, was ligated under ether-anesthesia, according to a usual method. After 14 hours, the animal was sacrificed by ether and the stomach was taken out therefrom.
The area of the ulcer generated on the fore-stomach was measured and the total area of the ulcer per rat was classified into the following six grades to give ulcer coefficients (Table 4).
Each of them was suspended in 0.5% methylcellulose solution and administered in the duodenum immediately after ligating the pylorus, in a dose of 100 mg/kg (body weight), respectively. To control group, only the medium for the medicament solution was administered in an amount of 0.25 ml/100 g (body weight).
The obtained results were subjected to the following formula to calculate a percentage of inhibition of ulcer formation. Six rats were used in each group for the test: [formula]

[4] = system: ulcer induced by acetic acid; test: Test of ulcer induced by acetic acid; format: in vivo, wistar male rat; details: rat, 15 mg/kg oral, twice a day from 2 days after generation of the ulcer
Experimental: as §1
Into the junction of the glandular stomach and the antrum, of a wistar male rat weighing 220 to 240 g, was injected subserosally […] of 20% acetic acid to generate an ulcer induced by acetic acid. […] Each of them was suspended in 0.5% methylcellulose solution, and administered orally in a dose of 15 mg/kg, twice a day (in the morning and in the evening) from 2 days after the generation of the ulcer for days, respectively. The animal was sacrificed by ether on the day after the last administration, and the stomach was taken out therefrom. The area of the ulcer was measured.
The obtained results were subjected to the following formula to calculate a percentage of improvement for curing ulcer. To control group, only the medium for the medicament solution was administered in an amount of 0.5 ml/100 g (body weight). Twenty rats were used in each group for the test. [formula]

[5] = system: cure-prolonged ulcer induced by acetic acid; test: Test of cure-prolonged ulcer induced by acetic acid; format: in vivo, wistar male rat; details: rat, 50 mg/kg oral, twice a day; cure prolonged with indomethacin 1 mg/kg s.c. for 13 days
Experimental: as §1
Into the junction of the glandular stomach and the antrum, of a wistar male rat weighing 220 to 240 g, was injected subserosally 30 μl of 20% acetic acid to generate an ulcer induced by acetic acid. From 2 days after the generation of the ulcer, indomethacin was injected subcutaneously in the regions of back of the rat in a dose of 1 mg/kg, once a day for 13 days to prolong the cure of the ulcer induced by acetic acid.
Each of them was suspended in 0.5% methylcellulose solution, and administered orally in a dose of 50 mg/kg, twice a day (in the morning and in the evening) from 13 days, respectively. The animal was sacrificed by ether on the day after the last administration, and the stomach was taken out therefrom. The area of the ulcer was measured. The obtained results were subjected to the following formula to calculate a percentage of improvement for curing ulcer. To control group, only the medium for the medicament solution was administered in an amount of 0.5 ml/100 g (body weight). Twenty rats were used in each group for the test. [formula]

[6] = rat, 30 minutes before hydrochloric acid/ethanol
[7] = rat, 100 mg/kg, in the duodenum immediately after ligating the pylorus, hydrochloride salts

SMILES | inhibition in vivo at 30 mg/kg [1, 6] [%] | inhibition in vivo at 30 mg/kg [2] [%] | inhibition in vivo at 100 mg/kg [3, 7] [%] | other results
COC(=O)NCC[S+]([O-])CC(=O)NC/C=C\COc1cccc(CN2CCCCC2)c1 (centres unmarked) [Example 79] | 78 | 67 | 57 | 
COc1ccccc1C(=O)NCCSCC(=O)NC/C=C\COc1cccc(CN2CCCCC2)c1 [Example 73] | 67 | 69 | 60 | 
NC(N)=Nc1nc(CSCCC(N)=NS(N)(=O)=O)cs1 [famotidine, reference compound] |  | 100 | 70 | Percentage of improvement for curing ulcer [4]: 7%; inhibition in vivo at 100 mg/kg ([1]; rat, 100 mg/kg oral (cimetidine and famotidine), 30 minutes before hydrochloric acid/ethanol): 34%; Percentage of improvement for curing ulcer [5]: 26%
CN/C(=N/CCSCc1nc[nH]c1C)NC#N [cimetidine, reference compound] |  |  |  | inhibition in vivo at 100 mg/kg ([1]; Rattus norvegicus, po): 7%; inhibition in vivo at 100 mg/kg ([2]; Mus musculus, po): 61%; inhibition in vivo at 100 mg/kg ([3]; Rattus norvegicus): 27%
CCOC(=O)NCCSCC(=O)NC/C=C\COc1cccc(CN2CCCCC2)c1 [Example 14, N-[4-[3-(piperidinomethyl)phenoxy]-cis-2-butenyl]-2-[2-(ethoxycarbonylamino)ethylthio]acetamide] | 77 | 91 | 63 | 
O=C(CSCCNC(=O)c1ccoc1)NC/C=C\COc1cccc(CN2CCCCC2)c1 [Example 10, N-[4-[3-(piperidinomethyl)phenoxy]-cis-2-butenyl]-2-[2-(3-furoylamino)ethylthio]acetamide] | 89 | 73 | 73 | 
O=C(CSCCNC(=O)c1ccccc1F)NCCCOc1cccc(CN2CCCCC2)c1 [Example 44] | 83 | 77 | 57 | 
COC(=O)NCCSCC(=O)NCCCOc1cccc(CN2CCCCC2)c1 [Example 12, N-[3-[3-(piperidinomethyl)phenoxy]propyl]-2-[2-(methoxycarbonylamino)ethylthio]acetamide] | 68 | 68 | 77 | 
CNC(=S)NCCSCC(=O)NCCCOc1cccc(CN2CCCCC2)c1 [Example 16, N-[3-[3-(piperidinomethyl)phenoxy]propyl]-2-[2-(N'-methylthioureido)ethylthio]acetamide] | 62 | 74 | 70 | 
COC(=O)NCC[S+]([O-])CC(=O)NCCCOc1cccc(CN2CCCCC2)c1 (centres unmarked) [Example 48] | 73 | 100 | 95 | 
CCOC(=O)NCCSCC(=O)NCCCOc1cccc(CN2CCCCC2)c1 [Example 13, N-[3-[3-(piperidinomethyl)phenoxy]propyl]-2-[2-(ethoxycarbonylamino)ethylthio]acetamide] | 69 | 89 | 68 | 
C=CCOC(=O)NCC[S+]([O-])CC(=O)NC/C=C\COc1cccc(CN2CCCCC2)c1 (centres unmarked) [Example 81] | 69 | 73 | 76 | 
O=C(CSCCNC(=O)c1ccco1)NCCCOc1cccc(CN2CCCCC2)c1 [Example 5, N-[3-[3-(piperidinomethyl)phenoxy]propyl]-2-[2-(2-furoylamino)ethylthio]acetamide] | 97 | 93 | 57 | 
CCCCNC(=S)NCCSCC(=O)NC/C=C\COc1cc(CN2CCCCC2)ccn1 [Example 95] | 72 | 71 | 73 | 
COc1ccc(CN2CCCCC2)cc1OC/C=C\CNC(=O)CSCCNC(=O)c1ccoc1 [Example 4, N-[4-[(2-methoxy-5-piperidinomethyl)phenoxy]-cis-2-butenyl]-2-[2-(3-furoylamino)ethylthio]acetamide] | 97 | 75 | 73 | 
O=C(CSCCNC(=O)c1ccccn1)NCCCOc1cccc(CN2CCCCC2)c1 [Example 6] | 61 | 88 | 67 | 
O=C(CSCCNC(=O)c1ccccc1)NC/C=C\COc1cccc(CN2CCCCC2)c1 [Example 8, N-[4-[3-(piperidinomethyl)phenoxy]-cis-2-butenyl]-2-[2-(benzoylamino)ethylthio]acetamide] | 90 | 93 | 50 | 
COc1ccccc1C(=O)NCCSCC(=O)NC/C=C\COc1cc(CN2CCCCC2)ccn1 [Example 91] | 87 | 83 | 69 | 
CCC(=NC#N)NCCSCC(=O)NC/C=C\COc1cccc(CN2CCCCC2)c1 [Example 11, N-[4-[3-(piperidinomethyl)phenoxy]-cis-2-butenyl]-2-[2-[(N-cyanopropioimidoyl)amino]ethylthio]-acetamide] | 51 | 70 | 55 | 
COC(=O)NCCSCC(=O)NC/C=C\COc1cccc(CN2CCCCC2)c1 [Example 15, N-[4-[3-(piperidinomethyl)phenoxy]-cis-2-butenyl]-2-[2-(methoxycarbonylamino)ethylthio]acetamide] | 60 | 98 | 68 | 
